Test results reported in ChEMBL document CHEMBL3039007, “Structure-based identification of OATP1B1/3 inhibitors” (Mol Pharmacol, 2013).
Starred links: 1 amine or outer side, 2 acyl side, 3 side chain; linkers in the order of their positions; H or OH if unused. Positions of bridges follow the written chain, without caps; N, C: chain ends. Non-standard residues stand in square brackets, D forms with d. Residues, ends and D or L forms follow the SMILES beside them. ξ: configuration not given here. *: point of attachment. X1 = N=C1NCCC([C@H](N[*:1])C(=O)[*:2])N1; ΔAla(Z-3-ureido) = NC(=O)N/C=C(\N)C(=O)O; ξβ3hOrn = NCCCC(N)CC(=O)*; Dap = NC[C@H](N)C(=O)O

Legend:
[1] = target: T1, Solute carrier organic anion transporter family member 1B1 (Homo sapiens, UniProt Q9Y6L6); details: chinese hamster, cho, 10 µM
T1 sequence (Q9Y6L6 whole entry): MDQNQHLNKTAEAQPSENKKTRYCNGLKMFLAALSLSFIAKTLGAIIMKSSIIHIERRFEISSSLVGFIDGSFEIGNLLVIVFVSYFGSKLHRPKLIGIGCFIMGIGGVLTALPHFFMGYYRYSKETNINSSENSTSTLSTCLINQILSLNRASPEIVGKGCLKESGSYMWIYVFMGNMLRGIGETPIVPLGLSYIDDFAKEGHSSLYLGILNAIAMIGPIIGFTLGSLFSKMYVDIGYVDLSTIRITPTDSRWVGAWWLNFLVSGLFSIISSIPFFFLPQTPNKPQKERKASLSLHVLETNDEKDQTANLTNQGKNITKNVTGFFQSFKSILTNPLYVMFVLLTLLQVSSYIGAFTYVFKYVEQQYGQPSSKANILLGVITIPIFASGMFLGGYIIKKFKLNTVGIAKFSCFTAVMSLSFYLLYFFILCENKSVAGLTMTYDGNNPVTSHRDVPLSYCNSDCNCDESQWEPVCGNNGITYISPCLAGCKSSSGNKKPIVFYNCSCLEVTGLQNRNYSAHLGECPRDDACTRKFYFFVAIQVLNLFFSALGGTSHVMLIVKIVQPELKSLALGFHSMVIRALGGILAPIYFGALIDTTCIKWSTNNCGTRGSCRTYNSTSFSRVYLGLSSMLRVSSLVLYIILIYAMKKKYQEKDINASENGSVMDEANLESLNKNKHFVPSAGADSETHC

[2] = target: T2, Solute carrier organic anion transporter family member 1B3 (Homo sapiens, UniProt Q9NPD5); details: chinese hamster, cho, 10 µM
T2 sequence (Q9NPD5 whole entry): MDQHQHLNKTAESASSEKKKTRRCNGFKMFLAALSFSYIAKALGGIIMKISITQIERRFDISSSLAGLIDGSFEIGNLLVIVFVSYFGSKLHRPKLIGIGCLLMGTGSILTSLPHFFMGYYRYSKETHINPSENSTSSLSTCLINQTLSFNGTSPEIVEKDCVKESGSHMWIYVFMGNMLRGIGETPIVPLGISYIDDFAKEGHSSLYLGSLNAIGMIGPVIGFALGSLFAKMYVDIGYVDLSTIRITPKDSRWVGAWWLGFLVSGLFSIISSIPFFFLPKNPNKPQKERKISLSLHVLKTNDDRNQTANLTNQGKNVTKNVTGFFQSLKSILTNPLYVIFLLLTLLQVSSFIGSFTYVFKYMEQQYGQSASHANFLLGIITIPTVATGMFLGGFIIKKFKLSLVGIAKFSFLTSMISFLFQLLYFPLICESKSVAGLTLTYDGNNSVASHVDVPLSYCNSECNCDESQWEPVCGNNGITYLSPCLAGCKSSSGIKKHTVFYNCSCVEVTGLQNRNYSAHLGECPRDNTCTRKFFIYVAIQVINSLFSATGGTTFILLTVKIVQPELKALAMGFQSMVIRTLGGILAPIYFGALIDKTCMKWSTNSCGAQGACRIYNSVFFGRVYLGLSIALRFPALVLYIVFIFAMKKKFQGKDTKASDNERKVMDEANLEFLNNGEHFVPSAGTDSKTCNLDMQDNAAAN

## Oc1ccc2c(c1)OC[C@]1(O)Cc3cc(O)c(O)cc3[C@H]21 [BRAZILIN]
[1]
  residual activity: 117.2%
[2]
  residual activity: 101.4%

## CC(=O)[C@H]1CC[C@H]2[C@@H]3CC[C@H]4C[C@H](O)CC[C@]4(C)[C@H]3CC[C@]12C [BREXANOLONE]
[1]
  residual activity: 41.5%
[2]
  residual activity: 89.68%

## CN(Cc1cc(Br)cc(Br)c1N)C1CCCCC1.Cl [BROMHEXINE HYDROCHLORIDE]
[1]
  residual activity: 103.1%
[2]
  residual activity: 95.98%

## CC1(C)CC2C1CC[C@]1(CBr)CCC3C(CC(=O)O)C(=O)O[C@@]32C1 (stereo partly drawn) [BROMO-3-HYDROXY-4-(SUCCIN-2-YL)-CARYOLANE gamma-LACTONE]
[1]
  residual activity: 26.83%
[2]
  residual activity: 50.1%

## CC(C)C[C@H]1C(=O)N2CCC[C@H]2[C@]2(O)O[C@](NC(=O)[C@@H]3C=C4c5cccc6[nH]c(Br)c(c56)C[C@H]4N(C)C3)(C(C)C)C(=O)N12.CS(=O)(=O)O [BROMOCRIPTINE MESYLATE]
[1]
  residual activity: 67.37%
[2]
  residual activity: 84.69%

## CN(C)CCC(c1ccc(Br)cc1)c1ccccn1.O=C(O)/C=C\C(=O)O (stereo not drawn) [BROMPHENIRAMINE MALEATE]
[1]
  residual activity: 88.52%
[2]
  residual activity: 90.7%

## Oc1c(Br)cc(Br)c2cccnc12 [BROXYQUINOLINE]
[1]
  residual activity: 57.32%
[2]
  residual activity: 75.68%

## COc1cc2c(cc1OC)[C@@]13CCN4CC5=CCO[C@H]6CC(=O)N2[C@H]1[C@H]6[C@H]5C[C@H]43 [BRUCINE]
[1]
  residual activity: 117.9%
[2]
  residual activity: 229.8%

## CCCC(=O)Nc1ncnc2c1ncn2[C@@H]1O[C@@H]2COP(=O)(O)O[C@H]2[C@H]1OC(=O)CCC [BUCLADESINE]
[1]
  residual activity: 116%
[2]
  residual activity: 88.95%

## COc1ccc(-c2cc(=O)c3c(O)cc(O[C@H]4O[C@H](CO[C@@H]5O[C@@H](C)[C@H](O)[C@@H](O)[C@H]5O)[C@@H](O)[C@H](O)[C@H]4O)cc3o2)cc1 [BUDDLEOFLAVONOLOSIDE]
[1]
  residual activity: 69.14%
[2]
  residual activity: 212.4%

## CCCC1O[C@@H]2C[C@H]3[C@@H]4CCC5=CC(=O)C=C[C@]5(C)[C@H]4[C@@H](O)C[C@]3(C)[C@]2(C(=O)CO)O1 (stereo partly drawn) [BUDESONIDE]
[1]
  residual activity: 43.76%
[2]
  residual activity: 73%

## CCCCOc1ccc(CC(=O)NO)cc1 [BUFEXAMAC]
[1]
  residual activity: 89.04%
[2]
  residual activity: 92.18%

## CCCCN1CCCCC1C(=O)Nc1c(C)cccc1C.Cl (stereo not drawn) [BUPIVACAINE HYDROCHLORIDE]
[1]
  residual activity: 97.15%
[2]
  residual activity: 94.2%

## CS(=O)(=O)OCCCCOS(C)(=O)=O [BUSULFAN]
[1]
  residual activity: 113.7%
[2]
  residual activity: 98.16%

## CCCCN(CCCC)CCCOC(=O)c1ccc(N)cc1 [BUTACAINE]
[1]
  residual activity: 93.87%
[2]
  residual activity: 114.4%

## CCCCOC(=O)c1ccc(N)cc1 [BUTAMBEN]
[1]
  residual activity: 159.2%
[2]
  residual activity: 124.9%

## CCC[C@H]1CC2=C(C[C@@H](CC)CC3=C1C(=O)OC3=O)C(=O)OC2=O [BYSSOCHLAMIC ACID]
[1]
  residual activity: 87.32%
[2]
  residual activity: 102.5%

## CC(=O)OC[C@@]1(O)C[C@@]23CC[C@@H]4c5ccoc5CC[C@@]4(C)[C@@H]2CC[C@@H]1C3 [CAFESTOL ACETATE]
[1]
  residual activity: 108.6%
[2]
  residual activity: 89.68%

## O=C(/C=C/c1ccc(O)c(O)c1)OCCc1ccccc1 [CAFFEIC ACID PHENETHYL ESTER]
[1]
  residual activity: 254%
[2]
  residual activity: 143.5%

## O=C(O)/C=C/c1ccc(O)c(O)c1 [CAFFEIC ACID]
[1]
  residual activity: 69.6%
[2]
  residual activity: 94%

## Cn1c(=O)c2c(ncn2C)n(C)c1=O [CAFFEINE]
[1]
  residual activity: 103.6%
[2]
  residual activity: 90.35%

## CC[C@@]1(O)C(=O)OCc2c1cc1n(c2=O)Cc2cc3ccccc3nc2-1 [CAMPTOTHECIN]
[1]
  residual activity: 74.81%
[2]
  residual activity: 107.3%

## N=C(N)NOCC[C@H](N)C(=O)O [CANAVANINE]
[1]
  residual activity: 101.6%
[2]
  residual activity: 91.69%

## CCOc1nc2cccc(C(=O)OC(C)OC(=O)OC3CCCCC3)c2n1Cc1ccc(-c2ccccc2-c2nnn[nH]2)cc1 (stereo not drawn) [CANDESARTAN CILEXETIL]
[1]
  residual activity: 10.55%
[2]
  residual activity: 5.967%

## C[C@]12CCC(=O)C=C1C=C[C@@H]1[C@@H]2CC[C@@]2(C)[C@H]1CC[C@@]21CCC(=O)O1 [CANRENONE]
[1]
  residual activity: 32.01%
[2]
  residual activity: 78.65%

## C[C@@]12C(=O)OC(=O)[C@]1(C)[C@H]1CC[C@@H]2O1 [CANTHARIDIN]
[1]
  residual activity: 102.5%
[2]
  residual activity: 105.7%

## C[C@@H]1NC(=O)[C@@H](N)CNC(=O)[C@H](C2CCNC(=N)N2)NC(=O)/C(=C/NC(N)=O)NC(=O)[C@H](CNC(=O)CC(N)CCCN)NC1=O.N=C1NCCC([C@@H]2NC(=O)/C(=C/NC(N)=O)NC(=O)[C@H](CNC(=O)CC(N)CCCN)NC(=O)[C@H](CO)NC(=O)[C@@H](N)CNC2=O)N1.O=S(=O)(O)O.O=S(=O)(O)O (stereo partly drawn) [CAPREOMYCIN SULFATE] (H-[Dap]S[Dap](ξβ3hOrn)[ΔAla(Z-3-ureido)][X1]; lactam 1-C)
[1]
  residual activity: 89.76%
[2]
  residual activity: 80.84%

## CC1=C(/C=C/C(C)=C/C=C/C(C)=C/C=C/C=C(C)/C=C/C=C(C)/C=C/C(=O)[C@]2(C)C[C@@H](O)CC2(C)C)C(C)(C)C[C@H](O)C1 [CAPSANTHIN]
[1]
  residual activity: 79.45%
[2]
  residual activity: 102.1%

## C[C@H](CS)C(=O)N1CCC[C@H]1C(=O)O [CAPTOPRIL]
[1]
  residual activity: 167%
[2]
  residual activity: 105.2%

## COC(=O)C[C@H]1C(C)(C)C(=O)[C@@H]2CC3C4=CC(=O)O[C@@H](c5ccoc5)[C@]4(C)CC[C@@H]3[C@@]1(C)C2=O (stereo partly drawn) [CARAPIN]
[1]
  residual activity: 20.92%
[2]
  residual activity: 66.49%

## C[N+](C)(C)CCOC(N)=O.[Cl-] [CARBACHOL]
[1]
  residual activity: 120.9%
[2]
  residual activity: 105.7%

## COC(=O)N/N=C/c1c[n+]([O-])c2ccccc2[n+]1[O-] [CARBADOX]
[1]
  residual activity: 84.43%
[2]
  residual activity: 107.6%

## NC(=O)N1c2ccccc2C=Cc2ccccc21 [CARBAMAZEPINE]
[1]
  residual activity: 121.6%
[2]
  residual activity: 99.43%

## CC1(C)S[C@@H]2[C@H](NC(=O)C(C(=O)[O-])c3ccccc3)C(=O)N2[C@H]1C(=O)[O-].[Na+].[Na+] (stereo partly drawn) [CARBENICILLIN DISODIUM]
[1]
  residual activity: 108.5%
[2]
  residual activity: 100.7%

## CC1(C)[C@@H](OC(=O)CCC(=O)[O-])CC[C@]2(C)[C@H]3C(=O)C=C4[C@@H]5C[C@@](C)(C(=O)[O-])CC[C@]5(C)CC[C@@]4(C)[C@]3(C)CC[C@@H]12.[Na+].[Na+] [CARBENOXOLONE SODIUM]
[1]
  residual activity: 15.44%
[2]
  residual activity: 14.47%

## CCN(CC)CCOCCOC(=O)C1(c2ccccc2)CCCC1.O=C(O)CC(O)(CC(=O)O)C(=O)O [CARBETAPENTANE CITRATE]
[1]
  residual activity: 86.24%
[2]
  residual activity: 97.23%

## C[C@@](Cc1ccc(O)c(O)c1)(NN)C(=O)O.O [CARBIDOPA]
[1]
  residual activity: 134.5%
[2]
  residual activity: 113.1%

## CCOC(=O)n1ccn(C)c1=S [CARBIMAZOLE]
[1]
  residual activity: 114.4%
[2]
  residual activity: 101.8%

## CN(C)CCOC(c1ccc(Cl)cc1)c1ccccn1.O=C(O)/C=C\C(=O)O (stereo not drawn) [CARBINOXAMINE MALEATE]
[1]
  residual activity: 85.11%
[2]
  residual activity: 96.23%

## CNC(=O)Oc1cccc2c1OC(C)(C)C2 [CARBOFURAN]
[1]
  residual activity: 100.9%
[2]
  residual activity: 111.1%

## CCCC(C)(COC(N)=O)COC(=O)NC(C)C (stereo not drawn) [CARISOPRODOL]
[1]
  residual activity: 106%
[2]
  residual activity: 103.8%

## Cc1c(C(=O)O)c(O)cc2c1C(=O)c1c(O)c([C@@H]3O[C@H](CO)[C@@H](O)[C@H](O)[C@H]3O)c(O)c(O)c1C2=O [CARMINIC ACID]
[1]
  residual activity: 21.61%
[2]
  residual activity: 121.9%

## CCCCCCNC(=O)n1cc(F)c(=O)[nH]c1=O [CARMOFUR]
[1]
  residual activity: 107%
[2]
  residual activity: 98.17%

## NCCC(=O)N[C@@H](Cc1cnc[nH]1)C(=O)O [CARNOSINE]
[1]
  residual activity: 26.44%
[2]
  residual activity: 98.86%
